Assay results as given in US12350273B2, “Treatment of SMA” (Hoffmann-La Roche Inc., priority 2017, dated 2025).
Like-named read-outs stand apart in the source and are kept apart here.

Key:
[1] = 39-week monkey toxicity study: toxicokinetics in plasma; type: in vivo, cynomolgus monkeys (Macaca fascicularis); details: for AUC(0-t) / Cmax: cynomolgus monkey, plasma
Method: Blood samples for toxicokinetics (nominally 0.5 mL) were taken from all test article-treated animals on Days 1, 12 (Week 2), 26 (Group 4 only), 57 (Week 9), 92 (Week 14), 180 (Week 26) and 267 (Week 39) of the dosing phase at the following time points: • 0 (predose), 1, 3, 7 and 24 hours postdose
An additional sample was taken at 72 hours postdose on Day 12 (i.e. Day 15) from all Group 4 animals.
Samples were taken from the femoral vein/artery. Each blood sample was mixed gently by hand then placed on crushed wet ice until centrifugation at 2300 g for 10 minutes at approximately 4° C. The resultant plasma was separated, split into two uniquely labelled clear polypropylene tubes and frozen at <−50° C. (nominally −80° C.). One sample was transported frozen on dry ice to the Principal Investigator for analysis, and the other was retained at Covance.

SMN protein = experiment: Study BP39055 Part 1: SMN protein in Type 2 and 3 SMA patients; type: in vivo, human
Excerpt: Study BP39055 is a two-part operationally seamless, multi-center, randomized, placebo-controlled, double-blind study to investigate the safety, tolerability, pharmacokinetics (PK), pharmacodynamics (PD) and efficacy of RO7034067 in Type 2 and 3 spinal muscular atrophy (SMA) patients. The study consists of an exploratory dose-finding part (Part 1) and a confirmatory part (Part 2).
The primary objective of Part 1 is to evaluate the safety, tolerability, PK and PD of RO7034067 in patients with Type 2 and Type 3 (ambulant or non-ambulant) SMA, and to select the dose for Part 2 of the study.
Part 1 was a double-blinded, placebo-controlled, randomized (2:1 RO7034067:placebo), exploratory dose-finding study in Type 2 and Type 3 (ambulant and non-ambulant) SMA patients. This will be followed by an open-label extension (OLE) at the same dose as selected for Part 2 of the study.
Part 1 of the study enrolled patients in two age groups: • Group A: adolescent and adult patients aged 12 25 years • Group B: children aged 2 11 years RO7034067 dose levels were investigated in a staggered, dose escalation manner in both age groups.
The dose recommended by the IMC for this age group according to the target AUC0-24 h,ss of 700 ng[…]h/mL was 0.02 mg/kg (see IMC recommendation of 12 Dec. 2016 in Appendix 1); 10 patients aged 3-11 years were enrolled in Cohort B1. • At the same time point (i.e., once safety and tolerability were confirmed based on the review of at least 4 weeks of treatment at 3 mg once daily in 9 patients in Cohort A1), enrolment was opened to another cohort of 9 adult and adolescent patients (Cohort A2) receiving RO7034067 5 mg once daily (see IMC recommendation of 19 Jan. 2017 in Appendix 1). As per protocol, the higher dose level was determined such as to achieve maximum SMN protein increase, without exceeding the exposure cap (Cmax 400 ng/mL; mean AUC0 24 h,ss 2000 ng[…]h/mL); 10 patients aged 13[…]24 years were enrolled in Cohort A2. • Based on the review of a minimum of 4 weeks of treatment at 0.02 mg/kg in 9 patients enrolled in Cohort B1, the following recommendations were made by the IMC: i) to increase the dose in these patients to 0.05 mg/kg without exceeding a cap dose of 3 mg, and ii) to enroll a minimum of 9 additional patients aged 2[…]11 years at a dose of 0.05 mg/kg without exceeding a cap dose of 3 mg (Cohort B2), targeting at least 5 patients aged 2[…]6 years (see IMC recommendation of 13 Mar. […] At the same time point, enrollment was opened to another cohort of 9 patients at the dose of 0.25 mg/kg without exceeding a cap dose of 5 mg (Cohort B3), determined such as to achieve maximum Survival of Motor Neuron (SMN) protein increase, without exceeding the exposure cap (Cmax 400 ng/mL; mean AUC0-24 h,ss 2000 ng[…]h/mL); 10 patients aged 2[…]11 years were enrolled in Cohort B3. • Upon completion of at least 12 weeks of placebo-controlled treatment by a minimum of 9 patients of each cohort, the IMC reviewed all available data from the cohort to make the decision to switch placebo patients to active treatment at the dose tested in their respective cohort. Dates of the IMC decisions to switch placebo patients to active treatment in the respective cohorts are provided in Section 1.3. • For the last cohort in Part 1 (Cohort B3), all available safety, tolerability, PK and PD data following completion of a minimum of 4 weeks treatment by the 9th patient (including all available data for the 10th patient of the last cohort who was enrolled approximately 1 week after the 9th patient, and all available data from all previous cohorts) were reviewed by the IMC in order to select the dose to be administered in Part 2 of the study. This dose selection was confirmed by the external iDMC following review of the same data package. […]

[2] = Stability of test item formulations; type: physicochemical; details: formulations 0.025 to 5 mg/mL, 2 to 8° C., absence of oxygen (under nitrogen)
Method: The test item was formulated as a solution in 10 mM ascorbic acid/0.0064 mg/mL sodium thiosulfate at pH 3. The formulations were stored at 2 to 8° C. with absence of oxygen (under nitrogen), protected from the light in a sealed container. They were allowed to reach room temperature prior to dosing and were stirred on arrival at the animal room and then continuously throughout dosing.

In the case of `Cc1cn2nc(-c3cc(=O)n4cc(N5CCNC6(CC6)C5)ccc4n3)cc(C)c2n1` [RO7034067, 7-(4,7-diazaspiro[2.5]octan-7-yl)-2-(2,8-dimethylimidazo[1,2-b]pyridazin-6-yl)pyrido[1,2-a]pyrimidin-4-one], the “gender differences for AUC(0-24h) or Cmax” value ([1]; any dose level, 39-week dosing phase) is reported as “no relevant gender differences”, the “dose dependence of AUC(0-24h)” value ([1]; between 1.5 and 5 mg/kg/day on each evaluation day) is reported as “roughly dose-proportional increase” and the AUC(0-t) ([1]; female, Day 12, 7.5 mg/kg/day oral, read-out: AUC(0-24h), female (mean)) is reported as 10200 ng·h/mL. The Cmax ([1]; female, Day 12, 7.5 mg/kg/day oral, read-out: Cmax, female (mean)) was 1070 ng/mL, the Cmax ([1]; female, Day 267 (Week 39), 1.5 mg/kg/day oral, read-out: Cmax, female (mean)) was 396 ng/mL and the AUC(0-t) ([1]; female, Day 267, 1.5 mg/kg/day oral, read-out: AUC(0-24h), female (mean)) was 2060 ng·h/mL. It also gave an AUC(0-t) ([1]; female, Day 267, 3 mg/kg/day oral, read-out: AUC(0-24h), female (mean)) of 4850 ng·h/mL, a Cmax ([1]; female, Day 267, 3 mg/kg/day oral, read-out: Cmax, female (mean)) of 973 ng/mL and an AUC(0-t) ([1]; female, Day 267, 5 mg/kg/day oral (Group 4, 7.5/5), read-out: AUC(0-24h), female (mean)) of 6470 ng·h/mL. For the same compound, the Cmax ([1]; female, Day 267, 5 mg/kg/day oral (Group 4, 7.5/5), read-out: Cmax, female (mean)) was 1160 ng/mL, the AUC(0-t) ([1]; male, Day 12, 7.5 mg/kg/day oral, read-out: AUC(0-24h), male (mean)) was 11200 ng·h/mL and the Cmax ([1]; male, Day 12, 7.5 mg/kg/day oral, read-out: Cmax, male (mean)) was 1020 ng/mL. It also gave a Cmax ([1]; male, Day 267 (Week 39), 1.5 mg/kg/day oral, read-out: Cmax, male (mean)) of 414 ng/mL, an AUC(0-t) ([1]; male, Day 267, 1.5 mg/kg/day oral, read-out: AUC(0-24h), male (mean)) of 1870 ng·h/mL and an AUC(0-t) ([1]; male, Day 267, 3 mg/kg/day oral, read-out: AUC(0-24h), male (mean)) of 4880 ng·h/mL. The Cmax ([1]; male, Day 267, 3 mg/kg/day oral, read-out: Cmax, male (mean)) was 1000 ng/mL, the AUC(0-t) ([1]; male, Day 267, 5 mg/kg/day oral (Group 4, 7.5/5), read-out: AUC(0-24h), male (mean)) was 5880 ng·h/mL and the Cmax ([1]; male, Day 267, 5 mg/kg/day oral (Group 4, 7.5/5), read-out: Cmax, male (mean)) was 701 ng/mL. For the same compound, the “Fold-Increase from the Baseline in SMN Protein on Day 28, median” value (shortened to “Fold-Increase from the Baseline”) (SMN protein; 0.02 mg) was 1.09 fold, the “Fold-Increase from the Baseline” value (SMN protein; 0.05 mg) was 1.51 fold and the “Fold-Increase from the Baseline” value (SMN protein; 0.15 mg/kg) was 1.67 fold. For the same compound, the “Fold-Increase from the Baseline” value (SMN protein; 0.25 mg/kg) was 1.96 fold, the “SMN protein increase versus baseline (median)” value (SMN protein; 0.25 mg/kg, 2-11 year age group) was 96% and the “Fold-Increase from the Baseline” value (SMN protein; 3 mg) was 2.25 fold. The “Fold-Increase from the Baseline” value (SMN protein; 5 mg) was 2.51 fold, the “median SMN protein increase versus baseline” value (SMN protein; 5 mg, SMA patients 12-25 years old) was 151% and the “time formulations were stable” value [2] was “up to 4 weeks”.
